Patent US20090181115A1, “Method of Screening for Compounds That Alter Skin and/or Hair Pigmentation” (priority 2006, published 2009)
“Also recorded” adds a separate entry of the source.

Tests used:
NCKX5 = assay: Western blot of NCKX5 protein 5 days after siRNA mediated knockdown; format: cell-based, human; settings: 5 days after siRNA knockdown, rabbit anti-NCKX5 pAb (anti C-terminus peptide)
Description: Using western blot we have investigated NCKX5 protein expression 5 days after siRNA mediated knockdown (all 5 siRNA duplexes and controls were tested). Western blot was also used to evaluate the expression and processing (maturation) of tyrosinase (tyr) in the same samples. SDS-PAGE (10% PA for NCKX5, 4-12% for tyr, 5 μg protein/lane). A) Western blot for NCKX5: Detection via rabbit anti-NCKX5 pAb (anti C-terminus peptide). B) Western blot for tyr, via goat pAb (Santa Cruz). 1=No treatment, 2=scrambled siRNA control, 3-7=siRNA's 185, 260, 301, 492, 1110. […] These bands are absent in the samples where SLC24A5-specific duplexes were used (lanes 3-7). It is possible that the doublet represents the presence of alternate SLC24A5 splice variants.
(§1) • Cultured Cells (trypsinised off of 6-well culture plates) were lysed on ice for 20 minutes in 1.5 ml eppendorfs using 100 μl per sample of 1% triton X-100 in dPBS containing protease inhibitor cocktail (Sigma-Aldrich, Poole, UK). Cell extracts were centrifuged (10 minutes at 13000 g) to separate melanin and cell debris from the solubilised protein. The protein concentration of each supernatant fraction was determined by BCA assay as described in A).
• 20 μg protein (as determined by BCA assay) was reconstituted into 20 μl of 1×LDS loading buffer (Invitrogen Ltd, Paisley, UK) containing 1× reducing agent (Invitrogen Ltd, Paisley, UK), heated to 40° C. for 30 minutes and loaded onto 10% Novex bis-tris acrylamide gels with 1×MOPS running buffer (Invitrogen Ltd, Paisley, UK). Kaleidoscope molecular weight markers (Bio-Rad Laboratories Ltd, Hemel Hempstead, UK) were run alongside samples for size determinations. Protein was transferred onto PVDF membrane by electrophoresis transfer, using a Bio-Rad mini-cell II trans-blotter and 1× Tris-Glycine transfer buffer (Invitrogen Ltd, Paisley, UK)+15% v/v methanol (100V for 1 hour).
• Membranes containing transferred protein were “blocked” using 2% w/v skimmed milk protein (SMP) in PBS+0.05% tween20 (PBST) for 1 hour with gentle agitation. Peptide affinity purified rabbit polyclonal antibody (raised using a peptide equivalent to the C-terminus of NCKX5-GNNKIRGCGG) was diluted to 0.5 μg/ml using 2% SMP in PBST. The diluted antibody was incubated with the membrane for 2 hours at room temperature. The membrane was then rinsed with PBST (4×5 minutes washes). Peroxidase conjugated anti-rabbit IgG (Jackson ImmunoResearch Laboratories Inc. PA, USA) was diluted 1/4000 using 2% SMP in PBST and was incubated with the membranes for 1 hour. Finally, membranes were washed using 6×5 minute rinses with PBST. SuperSignal Western pico (Perbio Science UK Ltd, Northumberland, UK) chemiluminescence detection reagents was used to probe the membranes for secondary antibody binding as per the manufacturers instructions. Visualisation of results was via a Chemidoc XRS imaging system (Bio-Rad Laboratories Ltd, Hemel Hempstead, UK).

[1] = tested on: lightly pigmented human melanocytes; assay: Quantitative assessment of melanogenesis (melanin content) after siRNA knockdown in human melanocytes; format: cell-based; settings: replicated x3
Description: A decrease in post-treatment melanin content is noted for duplex (492) in lightly pigmented human melanocytes (replicated ×3).
as §1
• To each pellet of melanin+cell debris obtained in section 2), 0.5 ml of diethyl ether:ethanol (1:1 ratio) was added. Eppendorfs were vortexed vigorously for 30 seconds and centrifuged at 13000 g for 5 minutes. The ether layer was carefully removed to waste and a further 0.5 ml was added. The tubes were agitated and centrifuged as before. The liquid phase was again removed and the melanin pellets were allowed to air dry at room temperature for 10 minutes. […] OD^45 0 of each sample was determined and the melanin content of each fraction was calculated from a synthetic melanin standard curve, prepared as described above. In treatment comparisons, results were expressed as μg melanin per μg protein. […]

B16 cells [2] = assay: Cell viability of B16 cells after siRNA treatment (Wst1 assay); format: cell-based, mouse; settings: end of each experiment
Description: (§2) Media was removed and melanin quantified by OD450. Cell viability measured using Wst1 proliferation reagent (Roche) before lysis using 1% triton ×100. Protein content of each well was determined by BCA assay.
Cell viability and protein content determination post-treatment could help to identify the manner in which SLC24A5 modulates pigment production in B16 melanocytes. […] This conclusion is supported by data obtained for protein content.
• The phenol free DMEM culture media was removed from each well for quantification of secreted melanin. Each well of the culture plate was then rinsed once with Dulbeccos phosphate buffered saline (dPBS) (Sigma-Aldrich, Poole, UK) and replaced with 0.5 ml Wst1 reagent (diluted 1/10 in media) (Roche Diagnostics Ltd, West Sussex, UK). The culture plate was incubated at 37° C., 5% CO2 for 30 minutes. The Wst1 reagent was removed from each well for determination of cell viability and each well was again rinsed with dPBS. 200 μl of 1% w/v Triton X-100 (Sigma-Aldrich, Poole, UK) in dPBS was added to each well of the culture plate. The plate was incubated for 20 minutes at 4° C. on an orbital shaker. Supernatant from each well was removed and centrifuged at 13000 g for 5 minutes to remove cell debris. Soluble fractions were kept for protein quantification.
• The OD^450 of 100 μl fractions (measured in duplicate) of post-incubation Wst1 reagent was measured. […]

B16 cells [3] = assay: Melanin synthesis in B16 cells after SLC24A5 siRNA knockdown (OD450 of media); format: cell-based, mouse; settings: transfected 8 hours, cultured a further 3 days
Description: Cells were transfected (lipofectamine 2000) with siRNA duplexes or controls for 8 hours. Cells were cultured for a further 3 days prior to analyses.
as §2
Experiment (each in quadruplicate) reproduced x3 consecutively.
24 h prior to transfection, B16 cells were plated at 25,000 cells/well in a 48-well plate. Cells in quadruplicate wells were transfected with 2 μg/ml Lipofectamine 2000 and 50 nM Stealth™ RNAi duplexes targeting SLC24A5 or scrambled controls (from Invitrogen). […]
Cells were incubated with transfection reagents for 6-8 h, reagents were then removed and replaced with phenol red-free DMEM supplemented with 10% FCS and 4 mM L-glutamine for 72 h. At 72 h, cells were taken for viability and total protein determination and supernatants analysed for melanin production.
• The phenol free DMEM culture media was removed from each well for quantification of secreted melanin. […] Soluble fractions were kept for protein quantification.
• 1 mg synthetic melanin (Sigma-Aldrich, Poole, UK) was dissolved in 50 μl of 100% DMSO. […] This standard was serially diluted (5-fold) in media+FCS to give a standard curve for quantification of melanin in sample preparations (range from 1000 to 8 μg/ml). […]

Row | Substance | NCKX5 bands of approx. 42 and 44 KDa on western blot (NCKX5) | other results
1 | duplex 185: Stealth siRNA duplex against human SLC24A5, exon 1 & 2 boundary; 5′ AGGGCCACAGGAAATAGCACCCAAT 3′ (antisense ATTGGGTGCTATTTCCTGTGGCCCT; Stealth chemically modified siRNA duplex, pattern not given here) | absent | –
2 | duplex 260: Stealth siRNA duplex against human SLC24A5, exon 2; 5′ GAGCGCAGAGATGGAGGCATCATAA 3′ (antisense TTATGATGCCTCCATCTCTGCGCTC; Stealth chemically modified siRNA duplex, pattern not given here) | absent | –
3 | duplex 301: Stealth siRNA duplex against human SLC24A5, exon 2; 5′ CGTTTACATGTTCATGGCCATATCT 3′ (antisense AGATATGGCCATGAACATGTAAACG; Stealth chemically modified siRNA duplex, pattern not given here) | absent | –
4 | duplex 492: Stealth siRNA duplex against human SLC24A5, exon 3 & 4 boundary; 5′ GCACCATCCTTGGATCTGCAATTTA 3′ (antisense TAAATTGCAGATCCAAGGATGGTGC; Stealth chemically modified siRNA duplex, pattern not given here) | absent | post-treatment melanin content [1]: decrease
5 | duplex 567: Stealth RNAi duplex targeting murine SLC24A5; sense 5′-CCUCUUCCGAGACUGUGCAGUGUAU-3′ (antisense GGAGAAGGCUCUGACACGUCACAUA; Stealth chemically modified RNAi duplex, pattern not given here; one strand is listed 3' to 5') | – | cell viability / toxicity (B16 cells [2]): significant toxicity; melanin synthesis / pigment production (B16 cells [3]): visibly decreased
6 | duplex 762: Stealth RNAi duplex targeting murine SLC24A5; sense 5′-CAGAGCUAUGGAGGAGAGAAUUGAA-3′ (antisense GUCUCGAUACCUCCUCUCUUAACUU; Stealth chemically modified RNAi duplex, pattern not given here; one strand is listed 3' to 5') | – | cell viability / toxicity (B16 cells [2]): without affecting viability; melanin synthesis / pigment production (B16 cells [3]; listed as 762): visibly decreased; also recorded: reduce pigment production
7 | duplex 1110: Stealth siRNA duplex against human SLC24A5, exon 7; 5′ CCGCATTTACATATATCCTGGTTTG 3′ (antisense CAAACCAGGATATATGTAAATGCGG; Stealth chemically modified siRNA duplex, pattern not given here) | absent | –
